Tests used:
human 5-HT2A receptor = human 5-HT2A receptor (Homo sapiens (Human), UniProt P28223); assay: Radioligand binding ([3H]-ketanserin) to cloned receptors expressed in HEK-293 EBNA cells; settings: HEK293 EBNA cell membranes expressing human 5-HT2A
Procedure, shortened: (§1)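 Membranes from transiently transfected HEK293 EBNA cells incubated 1 h at RT with ten compound concentrations (10 μM–0.1 nM). D2/D3: [3H]-spiperone ~0.7/0.5 nM, Tris–NaCl–Mg/Ca buffer pH 7.4; 5-HT2A: [3H]-ketanserin 1.1 nM, Tris–MgCl2–EGTA pH 7.4.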

human D2 receptor = human D2 receptor (Homo sapiens (Human), UniProt P14416); assay: Radioligand binding ([3H]-spiperone) to cloned receptors expressed in HEK-293 EBNA cells; settings: HEK293 EBNA cell membranes expressing human D2
Procedure, shortened: as §1

human D3 receptor = human D3 receptor (Homo sapiens (Human), UniProt P35462); assay: as above; settings: HEK293 EBNA cell membranes expressing human D3
Procedure, shortened: as §1

Chain of human 5-HT2A receptor (P28223 whole entry): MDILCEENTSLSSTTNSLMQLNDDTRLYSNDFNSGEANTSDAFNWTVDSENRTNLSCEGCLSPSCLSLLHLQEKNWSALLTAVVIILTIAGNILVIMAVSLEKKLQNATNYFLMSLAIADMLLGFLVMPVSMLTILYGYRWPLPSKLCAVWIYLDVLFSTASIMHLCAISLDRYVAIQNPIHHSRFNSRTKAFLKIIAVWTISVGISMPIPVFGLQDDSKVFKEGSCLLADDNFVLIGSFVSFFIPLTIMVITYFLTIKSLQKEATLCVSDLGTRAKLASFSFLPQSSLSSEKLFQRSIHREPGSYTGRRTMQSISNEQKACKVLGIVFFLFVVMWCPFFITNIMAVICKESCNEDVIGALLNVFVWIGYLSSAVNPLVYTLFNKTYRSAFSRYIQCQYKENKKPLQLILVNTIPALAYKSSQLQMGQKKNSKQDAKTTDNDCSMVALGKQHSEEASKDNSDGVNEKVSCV
Chain of human D3 receptor (P35462 whole entry): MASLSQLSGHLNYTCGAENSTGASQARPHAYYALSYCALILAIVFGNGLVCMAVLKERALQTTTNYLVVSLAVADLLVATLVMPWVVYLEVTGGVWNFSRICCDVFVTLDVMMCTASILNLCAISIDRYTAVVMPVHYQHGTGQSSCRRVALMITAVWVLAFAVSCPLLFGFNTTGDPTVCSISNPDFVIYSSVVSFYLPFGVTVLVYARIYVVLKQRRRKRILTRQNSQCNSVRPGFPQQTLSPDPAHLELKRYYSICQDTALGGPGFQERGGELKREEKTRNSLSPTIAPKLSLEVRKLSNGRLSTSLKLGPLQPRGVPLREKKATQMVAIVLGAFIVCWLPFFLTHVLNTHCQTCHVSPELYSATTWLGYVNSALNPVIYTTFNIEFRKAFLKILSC
Chain of human D2 receptor (P14416 whole entry): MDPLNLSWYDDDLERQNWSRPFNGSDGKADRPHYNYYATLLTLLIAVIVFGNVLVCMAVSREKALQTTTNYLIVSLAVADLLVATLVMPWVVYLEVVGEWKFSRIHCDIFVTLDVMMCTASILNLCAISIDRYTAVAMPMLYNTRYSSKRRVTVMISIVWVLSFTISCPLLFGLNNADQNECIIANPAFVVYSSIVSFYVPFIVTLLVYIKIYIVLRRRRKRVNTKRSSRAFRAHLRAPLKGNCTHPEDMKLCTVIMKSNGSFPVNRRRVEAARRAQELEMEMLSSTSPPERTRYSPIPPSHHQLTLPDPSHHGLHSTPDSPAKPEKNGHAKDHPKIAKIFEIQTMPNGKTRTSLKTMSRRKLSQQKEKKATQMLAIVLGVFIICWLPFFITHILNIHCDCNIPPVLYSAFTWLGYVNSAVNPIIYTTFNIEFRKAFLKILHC

Compound | Ki (human 5-HT2A receptor) [nM] | Ki (human D2 receptor) [nM] | Ki (human D3 receptor) [nM] | melting point [°C] | D2 Ki (human D2 receptor)
O=C(N[C@H]1CC[C@H](CCN2CCC(c3cccc4c3CCO4)CC2)CC1)C1CCOCC1 [Example 7, Tetrahydro-pyran-4-carboxylic acid trans-(4-{2-[4-(2,3-dihydro-benzofuran-4-yl)-piperidin-1-yl]-ethyl}-cyclohexyl)-amide] | 12.8 | 716 | 22.8 | 227 | 
CN1CCN(c2ccc(C(=O)N[C@H]3CC[C@H](CCN4CCC(c5cccc6c5CCO6)CC4)CC3)cc2)CC1 [Example 44, trans-N-(4-{2-[4-(2,3-Dihydro-benzofuran-4-yl)-piperidin-1-yl]-ethyl}-cyclohexyl)-4-(4-methyl-piperazin-1-yl)-benzamide] | 8.4 | 147 | 6 | 241 | 
O=C(N[C@H]1CC[C@H](CCN2CCC(c3cccc4c3CCO4)CC2)CC1)C1CCC1 [Example 26, Cyclobutanecarboxylic acid trans-(4-{2-[4-(2,3-dihydro-benzofuran-4-yl)-piperidin-1-yl]-ethyl}-cyclohexyl)-amide] | 20.4 | 145 | 8.4 | 197 | 
CC(C)=CC(=O)N[C@H]1CC[C@H](CCN2CCC(c3cccc4c3CCO4)CC2)CC1 [Example 84, 3-Methyl-but-2-enoic acid trans-(4-{2-[4-(2,3-dihydro-benzofuran-4-yl)-piperidin-1-yl]-ethyl}-cyclohexyl)-amide] | 59.8 | 73.9 | 6.36 | 177 | 
O=C(CC1CCOCC1)N[C@H]1CC[C@H](CCN2CCC(c3ccc(F)c4occc34)CC2)CC1 [Example 66, trans-N-(4-{2-[4-(7-Fluoro-benzofuran-4-yl)-piperidin-1-yl]-ethyl}-cyclohexyl)-2-(tetrahydro-pyran-4-yl)-acetamide] | 30.9 | 616 | 20.1 | 187.5 | 
O=C(N[C@H]1CC[C@H](CCN2CCC(c3cccc4c3CCO4)CC2)CC1)c1ccc(-c2cccnc2)cc1 [Example 92, trans-N-(4-{2-[4-(2,3-Dihydro-benzofuran-4-yl)-piperidin-1-yl]-ethyl}-cyclohexyl)-4-pyridin-3-yl-benzamide] | 25.4 | 99.8 | 5.35 | 224 | 
O=C(N[C@H]1CC[C@H](CCN2CCC(c3cccc4c3CCO4)CC2)CC1)c1ccc(N2CCS(=O)(=O)CC2)cc1 [Example 77, trans-N-(4-{2-[4-(2,3-Dihydro-benzofuran-4-yl)-piperidin-1-yl]-ethyl}-cyclohexyl)-4-(1,1-dioxo-1λ6-thiomorpholin-4-yl)-benzamide] | 33 | 329 | 5.62 | 282 | 
Cc1cc(CC(=O)N[C@H]2CC[C@H](CCN3CCC(c4cccc5c4CCO5)CC3)CC2)on1 [Example 19, trans-N-(4-{2-[4-(2,3-Dihydro-benzofuran-4-yl)-piperidin-1-yl]-ethyl}-cyclohexyl)-2-(3-methyl-isoxazol-5-yl)-acetamide] | 32.9 | 540 | 2 | 188 | 
COCCC(=O)N[C@H]1CC[C@H](CCN2CCC(c3cccc4occc34)CC2)CC1 [Example 2, trans-N-{4-[2-(4-Benzofuran-4-yl-piperidin-1-yl)-ethyl]-cyclohexyl}-3-methoxy-propionamide] | 7.1 | 288 | 3.1 | 154 | 
COCCC(=O)N[C@H]1CC[C@H](CCN2CCC(c3ccc(F)c4occc34)CC2)CC1 [Example 67, trans-N-(4-{2-[4-(7-Fluoro-benzofuran-4-yl)-piperidin-1-yl]-ethyl}-cyclohexyl)-3-methoxy-propionamide] | 31 | 613 | 9.28 | 177 | 
O=C(N[C@H]1CC[C@H](CCN2CCC(c3cccc4c3CCO4)CC2)CC1)C1CC1(F)F (stereo partly drawn) [Example 61, 2,2-Difluoro-cyclopropanecarboxylic acid trans-(4-{2-[4-(2,3-dihydro-benzofuran-4-yl)-piperidin-1-yl]-ethyl}-cyclohexyl)-amide] | 51.9 | 236 | 9.6 | 199 | 
O=C(N[C@H]1CC[C@H](CCN2CCC(c3cccc4c3CCO4)CC2)CC1)c1ccc(-n2cccn2)cc1 [Example 68, trans-N-(4-{2-[4-(2,3-Dihydro-benzofuran-4-yl)-piperidin-1-yl]-ethyl}-cyclohexyl)-4-pyrazol-1-yl-benzamide] | 27.4 | 1700 | 8.65 | 258.5 | 
CC[C@@H](O)CC(=O)N[C@H]1CC[C@H](CCN2CCC(c3cccc4c3CCO4)CC2)CC1 [Example 81, (R)-3-Hydroxy-pentanoic acid trans-(4-{2-[4-(2,3-dihydro-benzofuran-4-yl)-piperidin-1-yl]-ethyl}-cyclohexyl)-amide] | 123 | 356 | 10 | 201 | 
O=C(N[C@H]1CC[C@H](CCN2CCC(c3cccc4c3CCO4)CC2)CC1)C(F)(F)F [Example 43, trans-N-(4-{2-[4-(2,3-Dihydro-benzofuran-4-yl)-piperidin-1-yl]-ethyl}-cyclohexyl)-2,2,2-trifluoro-acetamide] | 55.2 | 289 | 21.9 | 173 | 
O=C(CC1COC1)N[C@H]1CC[C@H](CCN2CCC(c3cccc4c3CCO4)CC2)CC1 [Example 80, trans-N-(4-{2-[4-(2,3-Dihydro-benzofuran-4-yl)-piperidin-1-yl]-ethyl}-cyclohexyl)-2-oxetan-3-yl-acetamide] | 55.5 | 196 | 4.27 | 197 | 
CS(=O)(=O)CC(=O)N[C@H]1CC[C@H](CCN2CCC(c3cccc4c3CCO4)CC2)CC1 [Example 15, trans-N-(4-{2-[4-(2,3-Dihydro-benzofuran-4-yl)-piperidin-1-yl]-ethyl}-cyclohexyl)-2-methanesulfonyl-acetamide] | 35.9 | 419 | 4.9 | 211 | 
CS(=O)(=O)CC(=O)N[C@H]1CC[C@H](CCN2CCC(c3cccc4occc34)CC2)CC1 [Example 11, trans-N-{4-[2-(4-Benzofuran-4-yl-piperidin-1-yl)-ethyl]-cyclohexyl}-2-methanesulfonyl-acetamide] | 5.3 | 154 | 2.3 | 201 | 
O=C(CC1CCOCC1)N[C@H]1CC[C@H](CCN2CCC(c3cccc4occc34)CC2)CC1 [Example 4, trans-N-{4-[2-(4-Benzofuran-4-yl-piperidin-1-yl)-ethyl]-cyclohexyl}-2-(tetrahydro-pyran-4-yl)-acetamide] | 9 | 219 | 5.7 | 181 | 
CS(=O)(=O)c1ccc(C(=O)N[C@H]2CC[C@H](CCN3CCC(c4cccc5c4CCO5)CC3)CC2)cc1 [Example 95, trans-N-(4-{2-[4-(2,3-Dihydro-benzofuran-4-yl)-piperidin-1-yl]-ethyl}-cyclohexyl)-4-methanesulfonyl-benzamide] | 14.7 | 162 | 14 | 236 | 
CC(C)(O)CC(=O)N[C@H]1CC[C@H](CCN2CCC(c3cccc4c3CCO4)CC2)CC1 [Example 72, trans-N-(4-{2-[4-(2,3-Dihydro-benzofuran-4-yl)-piperidin-1-yl]-ethyl}-cyclohexyl)-3-hydroxy-3-methyl-butyramide] | 56.1 | 176 | 6.33 | 168 | 
O=C(N[C@H]1CC[C@H](CCN2CCC(c3cccc4c3CCO4)CC2)CC1)C1CC1 [Example 29, Cyclopropanecarboxylic acid trans-(4-{2-[4-(2,3-dihydro-benzofuran-4-yl)-piperidin-1-yl]-ethyl}-cyclohexyl)-amide] | 23.6 | 151 | 8.9 | 208 | 
COCCC(=O)N[C@H]1CC[C@H](CCN2CCC(c3cccc4c3CCO4)CC2)CC1 [Example 6, trans-N-(4-{2-[4-(2,3-Dihydro-benzofuran-4-yl)-piperidin-1-yl]-ethyl}-cyclohexyl)-3-methoxy-propionamide] | 38.7 | 509 | 6.6 | 182 | 
O=C(CC1CC1)N[C@H]1CC[C@H](CCN2CCC(c3cccc4c3CCO4)CC2)CC1 [Example 30, trans-2-Cyclopropyl-N-(4-{2-[4-(2,3-dihydro-benzofuran-4-yl)-piperidin-1-yl]-ethyl}-cyclohexyl)-acetamide] | 28.7 | 268 | 2.9 | 189 | 
N#CCC(=O)N[C@H]1CC[C@H](CCN2CCC(c3cccc4c3CCO4)CC2)CC1 [Example 55, trans-2-Cyano-N-(4-{2-[4-(2,3-dihydro-benzofuran-4-yl)-piperidin-1-yl]-ethyl}-cyclohexyl)-acetamide] | 38.7 | 140 | 3.6 | 194 | 
CC(C)(C)Oc1ccc(C(=O)N[C@H]2CC[C@H](CCN3CCC(c4cccc5c4CCO5)CC3)CC2)cc1 [Example 88, trans-4-tert-Butoxy-N-(4-{2-[4-(2,3-dihydro-benzofuran-4-yl)-piperidin-1-yl]-ethyl}-cyclohexyl)-benzamide] | 42.8 |  | 22.2 | 216 | inactive
